Values quoted from earlier work as cited in publication PMC5548886 (Cancer Medicine, 2017).

Key:
[1] = test system: advanced or metastatic melanoma; conditions: phase II trial; cited from earlier work
pERK = test system: pERK; design: method as in PMID 20823850; conditions: at the recommended phase II dose; cited from earlier work

Structure (SMILES)	response rate [1]	pERK suppression (pERK)
CNC(=O)c1ccccc1Sc1ccc2c(/C=C/c3ccccn3)n[nH]c2c1 [axitinib]	~ 19%	–
CCCS(=O)(=O)Nc1ccc(F)c(C(=O)c2c[nH]c3ncc(-c4ccc(Cl)cc4)cc23)c1F [vemurafenib]	–	over 80%
